Data on 20 compounds can be found in patent US20240384233A1, “Method for Producing Cardiomyocytes by Means of Reprogramming” (Plastech Pharmaceutical Technology Co., Ltd., priority 2020, published 2024).

Data set [1] concerns neonatal mouse skin fibroblasts (NSF) and mouse cardiac fibroblasts (nCFs). As to the kind of experiment: Substitute for 2C: small molecules of the same signaling pathway (beating cells in GMT NSF, cTnT positive cells in MT nCF). The note with it: GMT NSF D18 beating, MT nCF four weeks cTnT; for replacement of SB431542 (beating cells, number of cTnT-positive cells): combined with Baricitinib; for replacement of Baricitinib (beating cells, number of cTnT-positive cells): combined with SB431542. The class given is cell-based. The method, then:
Specifically, at D-2 (day-2), Myh6-mCherry neonatal mouse skin fibroblasts (NSF) were plated; at D-1 (day-1),the cells were infected with three lentiviruses expressing Gata4, Mef2c and Tbx5 (GMT), respectively; at D0 (day 0), the media were replaced with reprogramming media added with small molecules, and replaced every 3-4 days; andat D18, beating cells were counted. In addition, at D-2, WT mouse cardiac fibroblasts (nCFs) were plated, and residual cardiomyocytes were removed with CD90.2 MACS; at D-1, the cells were infected with virus expressing Mef2c+Tbx5 (MT); at D0, the media were replaced with reprogramming media added with small molecules, and replaced every 3 days; and after four weeks, cTnT positive cells were counted.2C was used as a positive control.
SB431542 is an inhibitor of TGFβ signaling pathway, and this example analyzed whether other small molecules of this signaling pathway could be combined with Baricitinib, including RepSox, GW788388, SD-208, LY364947, Y-27632, LDN-193189, LY2109761 and Galunisertib. Baricitinib is an inhibitor of Jak pathway, and this example analyzed whether other small molecules of this signaling pathway could be combined with SB431542, including Filgotinib, WP1066, Gandotinib, Ruxolitinib and AZD1480. […] It can be seen that the TGFβ signaling pathway is important for reprogramming into cardiomyocytes; however, at the same time, Baricitinib cannot be replaced by most other compounds targeting Jak-Stat.

In data set [2] the test system is neonatal mouse fibroblasts. As to the kind of experiment: Tyk2 small molecule inhibitors: reprogramming of neonatal mouse fibroblasts into cardiomyocytes (MT+SB431542). Type of data set: cell-based. The following applies: for beating cardiomyocytes: 2 uM SB431542; for cTnI and a-actinin positive cells: 2 uM SB431542, Tyk2 inhibitor 1, 2, 5 and 10 uM. The protocol:
Neonatal suckling mice within 24 h were ordered from Vital River. In an ultraclean bench, heart tissue was taken, cut with sterilized surgical instruments, added with an appropriate amount of Type II Collagenase (1 mg/mL), digested at 37° C. constant temperature, after full digestion, washed twice with IMDM (20% FBS+1% PS+1% NEAA+1% Glu-Max) medium, resuspended with the medium, and plated in a 10 cm culture dish. After 24 h, fresh IMDM was added, and on the fourth day, CD90.2 (anti-Thy1+) was used for MACS separation. The sorted cells were plated in a 24-well plate 2-5×10^5/well), and infected with Fu-tet-o-Mef2c-T2A-Tbx5 virus and rtTA 24 h after plating. After 24 h, the medium was replaced with reprogramming medium, and replaced every 3 days. Beating cells could be seen at the 4th week, and a large number of cTnI and a-actinin could be seen by immunofluorescence staining.
10% FBS, 10% KSR, DMEM/M199 [4:1], 1% PS+1% NEAA+1% Glu-Max, 2 uM SB431542, Tyk2 inhibitor (BMS-986165 or PF-06826647), replaced every 3 days. Tyk2 inhibitor was used at 1, 2, 5 and 10 uM, and the optimal concentration is shown in the concentration gradient curve.

The test system of the next data set is Tyk2 gene. The data set is described as follows: Knockdown effect of shRNAs on Tyk2 expression. The following applies: FIG. 21C. Type of data set: cell-based, mouse. The text has this:
(§1) Briefly, shRNAs targeting Tyk2 gene (shTyk2#1, shTyk2#2, shTyk2#3, shTyk2#4, shTyk2#5) were designed, introduced into neonatal mouse fibroblasts together with transcription factor combination MT, and then induced in reprogramming medium containing C1 to test the efficiency of reprogramming into cardiomyocyte-like cells.

Data set [3] has as its system neonatal mouse fibroblasts. As to the kind of experiment: Cardiomyocyte reprogramming with Tyk2 knockdown/knockout plus MT and C1. The class given is cell-based. The note with it: combined with transcription factor MT and C1.
Excerpt: as §1
To further confirm the role of specific inhibition of Tyk2 in cardiomyocyte reprogramming, the inventors further designed five different sgRNAs targeting Tyk2 gene, knocked out the Tyk2 gene of neonatal mouse fibroblasts using CRISPR technique, and tested the efficiency of cardiomyocyte reprogramming in the presence of transcription factor MT and C1, respectively. sgNT was a control for non-targeted Tyk2.

Data set [4] deals with WT mouse cardiac fibroblasts (nCFs). As to the kind of experiment: Replacement of Baricitinib in combination with SB431542 on the basis of MT transduction. The class given is cell-based. The following applies: three weeks. The text has this:
In addition, some small anti-inflammatory molecules have been reported to increase reprogramming-induced cardiomyocyte efficiency, such as Dexamethasone or Nabumetone.

Data set [5] has as its system Myh6-mCherry neonatal mouse skin fibroblasts (NSF). The data set is described as follows: GMT-mediated reprogramming of Myh6-mCherry neonatal mouse skin fibroblasts into induced cardiomyocyte like cells (iCM). The class given is cell-based. The following applies: for optimal action concentration: cTnT staining, titrated on 2 μM of the other small molecule of 2C. The protocol:
Reprogramming steps: at d-2, plating cells; at d-1, infecting with virus; andat d0, removing virus-containing medium, and replacing with reprogramming medium. Beating cell count and immunofluorescence assay were performed after approximately 3 weeks.
iCM reprogramming medium: DMEM/M199 (4:1) supplemented with 10% KnockOut serum replacement (KSR), 10% FBS, 1% GlutaMAX, 1% MEM NEAA, 1% Pen Strep, 2 μg/ml Dox and small molecule mixture 2C (2 μM SB431542, 2 μM Baricitinib).
At D-2, 24-well plate was coated with 0.1% gelatin and then placed in a cell culture incubator at 37° C. for 30 min, then the gelatin was aspirated, and the 24-well plate was inoculated with 80,000 cells per well. At D-1, MEF medium containing 6 ng/μl polybrene was replaced, the cells were infected with FU-tet-o-Gata4, FU-tet-o-Mef2c, FU-tet-o-Tbx5, FUdeltaGW-rtTA, 200 μl unconcentrated virus per well per virus. At D0, the medium was replaced with iCM reprogramming medium, and replaced every 3-4 days.
Screening was performed on Myh6-mCherry neonatal mouse dermal fibroblasts. Small molecule library was screened simultaneously with transfection of three genes of GMT (Gata4, Mef2c and Tbx5) to quantify the effect of small molecules on reprogramming by observing the ratio and brightness of reporter genes, as shown in FIG. 1A. Specifically, at D-2 (day-2), Myh6-mCherry neonatal mouse skin fibroblasts (NSF) were plated; at D-1 (day-1), the cells were infected with three lentiviruses expressing Gata4, Mef2c and Tbx5 (GMT), respectively; and at D0 (day 0), the media were replaced with reprogramming media added with small molecules, and replaced every 3-4 days. After three weeks of induction, the number of Myh6-mCherry positive cells was observed and counted to screen for small molecules that promoted the induced cardiomyocyte like cells (iCM).
The optimal action concentration and optimal action time of 2C were then further investigated. […] First, the optimal action concentration of SB431542 was determined by cardiomyocyte marker cTnT staining after adding different concentrations of SB431542 based on 2 μM Baricitinib. […]

Regarding `C[C@@H](N)[C@H]1CC[C@H](C(=O)Nc2ccncc2)CC1` [Y-27632], in data set [1], the “replacement of SB431542 (beating cells, number of cTnT-positive cells)” value (shortened to “replacement of SB431542”) was “could be effectively replaced by small molecules of the same signaling pathway”. Consider `Cc1cccc(-c2[nH]ncc2-c2ccc3ncccc3n2)n1` [RepSox], for which the “replacement of SB431542” value in data set [1] is recorded as “could be effectively replaced by small molecules of the same signaling pathway”. As for `C[C@H](NC(=O)/C(C#N)=C/c1cccc(Br)n1)c1ccccc1` [WP1066], the “replacement of Baricitinib (beating cells, number of cTnT-positive cells)” value (shortened to “replacement of Baricitinib”) in data set [1] is given as “only its structural analogue Ruxolitinib could be used for replacement”. Regarding `c1ccc2c(-c3cnn4cc(-c5ccc(N6CCNCC6)cc5)cnc34)ccnc2c1` [LDN-193189], the “replacement of SB431542” value in data set [1] is listed as “could be effectively replaced by small molecules of the same signaling pathway”. Turning to BMS-986165, in data set [2], the beating cardiomyocytes result is “could induce beating cardiomyocytes from fibroblasts”; the “cTnI and a-actinin positive cells” value is “could induce a number of cardiac specific markers cTnI and a-actinin positive cells from fibroblasts”. For `c1ccc(-c2[nH]ncc2-c2ccnc3ccccc23)nc1` [LY364947], the “replacement of SB431542” value in data set [1] was “could be effectively replaced by small molecules of the same signaling pathway”. For `Cc1cccc(-c2nn3c(c2-c2ccnc4ccc(C(N)=O)cc24)CCC3)n1` [Galunisertib], the “replacement of SB431542” value in data set [1] is “could be effectively replaced by small molecules of the same signaling pathway”.

As to `Fc1ccc(Cl)cc1-c1nc(Nc2ccncc2)c2nccnc2n1` [SD-208], in data set [1], the “replacement of SB431542” value is “could be effectively replaced by small molecules of the same signaling pathway”.

Consider “shTyk2#3: shRNA targeting Tyk2 gene, SEQ ID NO: 3 (CCACTTTAAGAATGAGAGCTTCTCGAGAAGCTCTCATTCTTAAAGTGG)”, for which the “knockdown of Tyk2 expression” value in the data set with Tyk2 gene is on record as “could knockdown the expression of Tyk2”. Moreover, the “efficiency of cardiomyocyte reprogramming (cTnI and a-actinin immunofluorescence)” value in data set [3] is “could achieve similar efficiency of cardiomyocyte reprogramming as small molecule combination 2C”. The corresponding values for “shTyk2#1: shRNA targeting Tyk2 gene, SEQ ID NO: 1 (CCCATCTTCATTAGCTGGGAACTCGAGTTCCCAGCTAATGAAGATGGG)” are “could knockdown the expression of Tyk2” and “could achieve similar efficiency of cardiomyocyte reprogramming as small molecule combination 2C”. Regarding `O=C(NC1CCOCC1)c1ccc(-c2cc(-c3c[nH]nc3-c3ccccn3)ccn2)cc1` [GW788388], the “replacement of SB431542” value in data set [1] is “could be effectively replaced by small molecules of the same signaling pathway”.

Consider `O=C(Nc1nc2cccc(-c3ccc(CN4CCS(=O)(=O)CC4)cc3)n2n1)C1CC1` [Filgotinib], for which the “replacement of Baricitinib” value in data set [1] is “only its structural analogue Ruxolitinib could be used for replacement”. Regarding `COc1ccc2cc(CCC(C)=O)ccc2c1` [Nabumetone], in data set [4], the “replacement of the effect of Baricitinib” value was “could not replace the effect of Baricitinib”.

Regarding `c1ccc(-c2nn3c(c2-c2ccnc4cc(OCCN5CCOCC5)ccc24)CCC3)nc1` [LY2109761], the “replacement of SB431542” value in data set [1] is recorded as “could be effectively replaced by small molecules of the same signaling pathway”. `Cc1cc(Nc2cc(CN3CCOCC3)c3nc(C)c(Cc4ccc(Cl)cc4F)n3n2)n[nH]1` [Gandotinib]: the “replacement of Baricitinib” value in data set [1] is reported as “only its structural analogue Ruxolitinib could be used for replacement”.

On to “shTyk2#2: shRNA targeting Tyk2 gene, SEQ ID NO: 2 (CCCTTCATCAAGCTAAGTGATCTCGAGATCACTTAGCTTGATGAAGGG)”, for which the “knockdown of Tyk2 expression” value with Tyk2 gene is “could knockdown the expression of Tyk2”. Further, in data set [3], the “efficiency of cardiomyocyte reprogramming (cTnI and a-actinin immunofluorescence)” value is “could achieve similar efficiency of cardiomyocyte reprogramming as small molecule combination 2C”. As to `Cn1cc(-c2cn3nccc3c(-c3cnn([C@]4(CC#N)C[C@@H](C#N)C4)c3)n2)cn1` [PF-06826647], in data set [2], the beating cardiomyocytes result is listed as “could induce beating cardiomyocytes from fibroblasts”; the “cTnI and a-actinin positive cells” value was “could induce a number of cardiac specific markers cTnI and a-actinin positive cells from fibroblasts”.

`CCS(=O)(=O)N1CC(CC#N)(n2cc(-c3ncnc4[nH]ccc34)cn2)C1` [Baricitinib]: the optimal action concentration in data set [5] is 2 µM. Regarding `NC(=O)c1ccc(-c2nc(-c3ccc4c(c3)OCO4)c(-c3ccccn3)[nH]2)cc1` [SB431542], in data set [5], the optimal action concentration worked out at 2 µM. For the same compound, the “efficiency of reprogramming induced cardiomyocytes (number of Myh6-mCherry positive cells)” value in data set [5] (three weeks of induction) is listed as “increase the efficiency of reprogramming induced cardiomyocytes”. As to `Cc1cc(Nc2nc(N[C@@H](C)c3ncc(F)cn3)ncc2Cl)n[nH]1` [AZD1480], the “replacement of Baricitinib” value in data set [1] is reported as “only its structural analogue Ruxolitinib could be used for replacement”.
